Assays:
Experiment in all cases: relative viability (nuclei count vs DMSO), 5 days (fraction); higher = more cells survive
Ruxolitinib + AZD7762 = compound: N#CC[C@H](C1CCCC1)n1cc(-c2ncnc3[nH]ccc23)cn1 [Ruxolitinib] + NC(=O)Nc1cc(-c2cccc(F)c2)sc1C(=O)N[C@H]1CCCNC1 [AZD7762] (partner 0.2 µM)
Method in brief: (§1)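 Lung cancer cell lines in 1536-well plates got either a single drug or a fixed anchor-drug dose together with five library-drug doses (not always all listed) in √10 steps, by pin tool, on the day after seeding. Nuclei were counted after 5 days, and relative viability is the treated-to-vehicle ratio of nuclei counts. Values are medians of duplicate plates.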

Ruxolitinib + Vorinostat = compound: N#CC[C@H](C1CCCC1)n1cc(-c2ncnc3[nH]ccc23)cn1 [Ruxolitinib] + O=C(CCCCCCC(=O)Nc1ccccc1)NO [Vorinostat] (partner 1 µM)
Method in brief: as §1

Ruxolitinib + Decitabine = compound: N#CC[C@H](C1CCCC1)n1cc(-c2ncnc3[nH]ccc23)cn1 [Ruxolitinib] + Nc1ncn([C@H]2C[C@H](O)[C@@H](CO)O2)c(=O)n1 [Decitabine] (partner 2 µM)
Method in brief: as §1

Vismodegib + Navitoclax = compound: CS(=O)(=O)c1ccc(C(=O)Nc2ccc(Cl)c(-c3ccccn3)c2)c(Cl)c1 [Vismodegib] + CC1(C)CCC(c2ccc(Cl)cc2)=C(CN2CCN(c3ccc(C(=O)NS(=O)(=O)c4ccc(N[C@H](CCN5CCOCC5)CSc5ccccc5)c(S(=O)(=O)C(F)(F)F)c4)cc3)CC2)C1 [Navitoclax] (partner 0.5 µM)
Method in brief: as §1

NCI-H2342 gave a relative viability (Ruxolitinib + AZD7762; first compound 0.08 µM) of 0.429, a relative viability (Ruxolitinib + AZD7762; first compound 0.253 µM) of 0.447 and a relative viability (Ruxolitinib + AZD7762; first compound 0.8 µM) of 0.488. For the same cell line, the relative viability (Ruxolitinib + AZD7762; first compound 2.53 µM) was 0.422, the relative viability (Ruxolitinib + AZD7762; first compound 8 µM) was 0.649 and the relative viability (Ruxolitinib + Vorinostat; first compound 0.08 µM) was 0.82. For the same cell line, the relative viability (Ruxolitinib + Vorinostat; first compound 0.253 µM) was 0.706, the relative viability (Ruxolitinib + Vorinostat; first compound 0.8 µM) was 0.833 and the relative viability (Ruxolitinib + Vorinostat; first compound 2.53 µM) was 0.724. It also gave a relative viability (Ruxolitinib + Vorinostat; first compound 8 µM) of 0.823, a relative viability (Ruxolitinib + Decitabine; first compound 0.08 µM) of 0.706 and a relative viability (Ruxolitinib + Decitabine; first compound 0.253 µM) of 0.665. It also gave a relative viability (Ruxolitinib + Decitabine; first compound 0.8 µM) of 0.777, a relative viability (Ruxolitinib + Decitabine; first compound 2.53 µM) of 0.783 and a relative viability (Ruxolitinib + Decitabine; first compound 8 µM) of 0.667.
NCI-H1299 showed a relative viability (Vismodegib + Navitoclax; first compound 0.08 µM) of 1.03, a relative viability (Vismodegib + Navitoclax; first compound 0.253 µM) of 1 and a relative viability (Vismodegib + Navitoclax; first compound 0.8 µM) of 1.09. The relative viability (Vismodegib + Navitoclax; first compound 2.53 µM) was 0.935 and the relative viability (Vismodegib + Navitoclax; first compound 8 µM) was 1.01.
Calu-6 showed a relative viability (Vismodegib + Navitoclax; first compound 0.08 µM) of 0.712, a relative viability (Vismodegib + Navitoclax; first compound 0.253 µM) of 0.781 and a relative viability (Vismodegib + Navitoclax; first compound 0.8 µM) of 0.817. It also gave a relative viability (Vismodegib + Navitoclax; first compound 2.53 µM) of 0.877 and a relative viability (Vismodegib + Navitoclax; first compound 8 µM) of 0.845.
For NCI-H1792, the relative viability (Vismodegib + Navitoclax; first compound 0.08 µM) was 0.634, the relative viability (Vismodegib + Navitoclax; first compound 0.253 µM) was 0.655 and the relative viability (Vismodegib + Navitoclax; first compound 0.8 µM) was 0.588. For the same cell line, the relative viability (Vismodegib + Navitoclax; first compound 2.53 µM) was 0.616, the relative viability (Vismodegib + Navitoclax; first compound 8 µM) was 0.619 and the relative viability (Ruxolitinib + AZD7762; first compound 0.08 µM) was 0.557. It also gave a relative viability (Ruxolitinib + AZD7762; first compound 0.253 µM) of 0.636, a relative viability (Ruxolitinib + AZD7762; first compound 0.8 µM) of 0.63 and a relative viability (Ruxolitinib + AZD7762; first compound 2.53 µM) of 0.475. The relative viability (Ruxolitinib + AZD7762; first compound 8 µM) was 0.391, the relative viability (Ruxolitinib + Decitabine; first compound 0.08 µM) was 0.516 and the relative viability (Ruxolitinib + Decitabine; first compound 0.253 µM) was 0.544. It also gave a relative viability (Ruxolitinib + Decitabine; first compound 0.8 µM) of 0.602, a relative viability (Ruxolitinib + Decitabine; first compound 2.53 µM) of 0.425 and a relative viability (Ruxolitinib + Decitabine; first compound 8 µM) of 0.476.
With IA-LM the relative viability (Vismodegib + Navitoclax; first compound 0.08 µM) was 0.912, the relative viability (Vismodegib + Navitoclax; first compound 0.253 µM) was 0.725 and the relative viability (Vismodegib + Navitoclax; first compound 0.8 µM) was 0.908. The relative viability (Vismodegib + Navitoclax; first compound 2.53 µM) was 0.82, the relative viability (Vismodegib + Navitoclax; first compound 8 µM) was 0.868 and the relative viability (Ruxolitinib + Vorinostat; first compound 0.08 µM) was 0.896. The relative viability (Ruxolitinib + Vorinostat; first compound 0.253 µM) was 1.12, the relative viability (Ruxolitinib + Vorinostat; first compound 0.8 µM) was 1.17 and the relative viability (Ruxolitinib + Vorinostat; first compound 2.53 µM) was 0.929. For the same cell line, the relative viability (Ruxolitinib + Vorinostat; first compound 8 µM) was 1.19.
Work on NCI-H650 yielded a relative viability (Ruxolitinib + AZD7762; first compound 0.08 µM) of 0.951, a relative viability (Ruxolitinib + AZD7762; first compound 0.253 µM) of 1.06 and a relative viability (Ruxolitinib + AZD7762; first compound 0.8 µM) of 1.01. For the same cell line, the relative viability (Ruxolitinib + AZD7762; first compound 2.53 µM) was 0.993, the relative viability (Ruxolitinib + AZD7762; first compound 8 µM) was 0.707 and the relative viability (Ruxolitinib + Vorinostat; first compound 0.08 µM) was 0.532. The relative viability (Ruxolitinib + Vorinostat; first compound 0.253 µM) was 0.423, the relative viability (Ruxolitinib + Vorinostat; first compound 0.8 µM) was 0.406 and the relative viability (Ruxolitinib + Vorinostat; first compound 2.53 µM) was 0.44. For the same cell line, the relative viability (Ruxolitinib + Vorinostat; first compound 8 µM) was 0.429, the relative viability (Ruxolitinib + Decitabine; first compound 0.08 µM) was 0.364 and the relative viability (Ruxolitinib + Decitabine; first compound 0.253 µM) was 0.38. The relative viability (Ruxolitinib + Decitabine; first compound 0.8 µM) was 0.28, the relative viability (Ruxolitinib + Decitabine; first compound 2.53 µM) was 0.342 and the relative viability (Ruxolitinib + Decitabine; first compound 8 µM) was 0.332.
NCI-H1650 was tested, and the relative viability (Vismodegib + Navitoclax; first compound 0.08 µM) was 1.14, the relative viability (Vismodegib + Navitoclax; first compound 0.253 µM) was 1.27 and the relative viability (Vismodegib + Navitoclax; first compound 0.8 µM) was 1.2. It also gave a relative viability (Vismodegib + Navitoclax; first compound 2.53 µM) of 1.17, a relative viability (Vismodegib + Navitoclax; first compound 8 µM) of 1.14 and a relative viability (Ruxolitinib + Vorinostat; first compound 0.08 µM) of 0.558. It also gave a relative viability (Ruxolitinib + Vorinostat; first compound 0.253 µM) of 0.557, a relative viability (Ruxolitinib + Vorinostat; first compound 0.8 µM) of 0.708 and a relative viability (Ruxolitinib + Vorinostat; first compound 2.53 µM) of 0.551. The relative viability (Ruxolitinib + Vorinostat; first compound 8 µM) was 0.57, the relative viability (Ruxolitinib + Decitabine; first compound 0.08 µM) was 0.321 and the relative viability (Ruxolitinib + Decitabine; first compound 0.253 µM) was 0.338. It also gave a relative viability (Ruxolitinib + Decitabine; first compound 0.8 µM) of 0.438, a relative viability (Ruxolitinib + Decitabine; first compound 2.53 µM) of 0.418 and a relative viability (Ruxolitinib + Decitabine; first compound 8 µM) of 0.442.
Work on NCI-H1648 yielded a relative viability (Ruxolitinib + AZD7762; first compound 0.08 µM) of 0.739, a relative viability (Ruxolitinib + AZD7762; first compound 0.253 µM) of 0.817 and a relative viability (Ruxolitinib + AZD7762; first compound 0.8 µM) of 0.658. It also gave a relative viability (Ruxolitinib + AZD7762; first compound 2.53 µM) of 0.914, a relative viability (Ruxolitinib + AZD7762; first compound 8 µM) of 1.15 and a relative viability (Ruxolitinib + Vorinostat; first compound 0.08 µM) of 0.331. For the same cell line, the relative viability (Ruxolitinib + Vorinostat; first compound 0.253 µM) was 0.408, the relative viability (Ruxolitinib + Vorinostat; first compound 0.8 µM) was 0.984 and the relative viability (Ruxolitinib + Vorinostat; first compound 2.53 µM) was 0.748. It also gave a relative viability (Ruxolitinib + Vorinostat; first compound 8 µM) of 0.895, a relative viability (Ruxolitinib + Decitabine; first compound 0.08 µM) of 0.472 and a relative viability (Ruxolitinib + Decitabine; first compound 0.253 µM) of 0.558. It also gave a relative viability (Ruxolitinib + Decitabine; first compound 0.8 µM) of 0.588, a relative viability (Ruxolitinib + Decitabine; first compound 2.53 µM) of 0.592 and a relative viability (Ruxolitinib + Decitabine; first compound 8 µM) of 0.861.
For NCI-H520, the relative viability (Vismodegib + Navitoclax; first compound 0.08 µM) was 1.06, the relative viability (Vismodegib + Navitoclax; first compound 0.253 µM) was 1.12 and the relative viability (Vismodegib + Navitoclax; first compound 0.8 µM) was 0.941. The relative viability (Vismodegib + Navitoclax; first compound 2.53 µM) was 1.12, the relative viability (Vismodegib + Navitoclax; first compound 8 µM) was 1.09 and the relative viability (Ruxolitinib + Vorinostat; first compound 0.08 µM) was 0.758. It also gave a relative viability (Ruxolitinib + Vorinostat; first compound 0.253 µM) of 0.858, a relative viability (Ruxolitinib + Vorinostat; first compound 0.8 µM) of 0.752 and a relative viability (Ruxolitinib + Vorinostat; first compound 2.53 µM) of 0.844. For the same cell line, the relative viability (Ruxolitinib + Vorinostat; first compound 8 µM) was 0.654, the relative viability (Ruxolitinib + Decitabine; first compound 0.08 µM) was 0.506 and the relative viability (Ruxolitinib + Decitabine; first compound 0.253 µM) was 0.484. For the same cell line, the relative viability (Ruxolitinib + Decitabine; first compound 0.8 µM) was 0.553, the relative viability (Ruxolitinib + Decitabine; first compound 2.53 µM) was 0.47 and the relative viability (Ruxolitinib + Decitabine; first compound 8 µM) was 0.525.
With NCI-H522 the relative viability (Ruxolitinib + AZD7762; first compound 0.08 µM) was 0.948, the relative viability (Ruxolitinib + AZD7762; first compound 0.253 µM) was 0.716 and the relative viability (Ruxolitinib + AZD7762; first compound 0.8 µM) was 1.01. For the same cell line, the relative viability (Ruxolitinib + AZD7762; first compound 2.53 µM) was 0.794, the relative viability (Ruxolitinib + AZD7762; first compound 8 µM) was 0.803 and the relative viability (Ruxolitinib + Vorinostat; first compound 0.08 µM) was 0.949. For the same cell line, the relative viability (Ruxolitinib + Vorinostat; first compound 0.253 µM) was 0.868, the relative viability (Ruxolitinib + Vorinostat; first compound 0.8 µM) was 0.978 and the relative viability (Ruxolitinib + Vorinostat; first compound 2.53 µM) was 0.873. For the same cell line, the relative viability (Ruxolitinib + Vorinostat; first compound 8 µM) was 0.859, the relative viability (Ruxolitinib + Decitabine; first compound 0.08 µM) was 0.694 and the relative viability (Ruxolitinib + Decitabine; first compound 0.253 µM) was 0.695. It also gave a relative viability (Ruxolitinib + Decitabine; first compound 0.8 µM) of 0.669, a relative viability (Ruxolitinib + Decitabine; first compound 2.53 µM) of 0.701 and a relative viability (Ruxolitinib + Decitabine; first compound 8 µM) of 0.654.
With A549 the relative viability (Vismodegib + Navitoclax; first compound 0.08 µM) was 1.02, the relative viability (Vismodegib + Navitoclax; first compound 0.253 µM) was 1.13 and the relative viability (Vismodegib + Navitoclax; first compound 0.8 µM) was 1.28. It also gave a relative viability (Vismodegib + Navitoclax; first compound 2.53 µM) of 1.18, a relative viability (Vismodegib + Navitoclax; first compound 8 µM) of 1.23 and a relative viability (Ruxolitinib + Decitabine; first compound 0.08 µM) of 0.215. For the same cell line, the relative viability (Ruxolitinib + Decitabine; first compound 0.253 µM) was 0.254, the relative viability (Ruxolitinib + Decitabine; first compound 0.8 µM) was 0.322 and the relative viability (Ruxolitinib + Decitabine; first compound 2.53 µM) was 0.197. For the same cell line, the relative viability (Ruxolitinib + Decitabine; first compound 8 µM) was 0.28.
